From patent US12565488B2, “Inhibitors of influenza virus replication” (COCRYSTAL PHARMA, INC., priority 2018, dated 2026)

system: Influenza type A (strain A/PR/8/34, ATCC VR-95); experiment: Influenza antiviral assay: inhibition of virus-induced cytopathic effects (CPE) in MDCK cells, XTT dye reduction; type: cell-based; conditions: Influenza A (H1N1) replication in MDCK cells, CPE reduction by XTT at 4 days post-infection; read-out: Influenza H1N1 affinity, EC50

Row | SMILES | EC50 [µM]
1 | O=C(NCC1c2ccccc2COc2ccccc21)c1c(O)c(=O)ccn1CC1c2ccccc2COc2ccccc21 (stereo not shown) [Compound 50] | 1 to 10

same assay, conditions: Influenza A virus, H1N1 / PR/8, MDCK, 96 h, Influenza A (H1N1) replication in MDCK cells, CPE reduction by XTT at 4 days post-infection; read-out: Influenza H1N1 affinity, EC50

Row | SMILES | EC50 [µM]
2 | O=C(O)c1c(O)c(=O)ccn1NC1CCCOc2ccccc21 (stereo not shown) [Compound 1] | 10 to 100
3 | O=C(O)c1c(O)c(=O)ccn1NC1c2ccccc2COc2ccccc21 (stereo not shown) [Compound 2, 1-((6,11-dihydrodibenzo[b,e]oxepin-11-yl)amino)-3-hydroxy-4-oxo-1,4-dihydropyridine-2-carboxylic acid] | 10 to 100
4 | O=c1ccn(NC2c3ccccc3COc3ccccc32)cc1O (stereo not shown) [Compound 4] | > 100
5 | CN(C)C(=O)c1c(O)c(=O)ccn1NC1c2ccccc2COc2ccccc21 (stereo not shown) [Compound 5] | > 100
6 | CN(Cc1ccccc1)C(=O)c1c(O)c(=O)ccn1NC1c2ccccc2COc2ccccc21 (stereo not shown) [Compound 6] | 1 to 10
7 | O=C(NCCOCCO)c1c(O)c(=O)ccn1NC1CCCNc2ccccc21 (stereo not shown) [Compound 8] | > 100
8 | COC(=O)c1c(O)c(=O)ccn1NC1CCCN(Cc2ccc(OC)cc2)c2ccccc21 (stereo not shown) [Compound 9] | > 100
9 | CC(C)NC(=O)c1c(O)c(=O)ccn1N(C)C1c2ccccc2COc2ccccc21 (stereo not shown) [Compound 10] | > 100
10 | O=C(Nc1ccccc1)c1c(O)c(=O)ccn1NC1c2ccccc2COc2ccccc21 (stereo not shown) [Compound 11] | > 100
11 | O=c1ccn(NC2CCOCc3ccccc32)cc1O (stereo not shown) [Compound 12] | > 100
12 | O=C(Nc1cccc(C(F)(F)F)c1)c1c(O)c(=O)ccn1NC1c2ccccc2COc2ccccc21 (stereo not shown) [Compound 13, 1-((6,11-dihydrodibenzo[b,e]oxepin-11-yl)amino)-3-hydroxy-4-oxo-N-(3-(trifluoromethyl)phenyl)-1,4-dihydropyridine-2-carboxamide] | 1 to 10
13 | O=C(NCCOCCO)c1c(O)c(=O)ccn1NC1CCCN(Cc2ccccc2)c2ccccc21 (stereo not shown) [Compound 17] | > 100
14 | CN(C1c2ccccc2COc2ccccc21)n1ccc(=O)c(O)c1C(=O)NCc1ccccc1 (stereo not shown) [Compound 18] | > 100
15 | O=C(Nc1cccc(O)c1)c1c(O)c(=O)ccn1NC1c2ccccc2COc2ccccc21 (stereo not shown) [Compound 19] | > 100
16 | O=C(Nc1ccc(O)cc1)c1c(O)c(=O)ccn1NC1c2ccccc2COc2ccccc21 (stereo not shown) [Compound 20] | > 100
17 | O=C(Nc1cccc2ccccc12)c1c(O)c(=O)ccn1NC1c2ccccc2COc2ccccc21 (stereo not shown) [Compound 21] | > 100
18 | O=C(NCc1ccc2ccccc2c1)c1c(O)c(=O)ccn1NC1c2ccccc2COc2ccccc21 (stereo not shown) [Compound 22] | 1 to 10
19 | O=C(NCc1ccc(-c2ccccc2)cc1)c1c(O)c(=O)ccn1NC1c2ccccc2COc2ccccc21 (stereo not shown) [Compound 23, N-(Biphenyl-4-ylmethyl)-1-(6,11-dihydrodibenzo[b,e]oxepin-11-ylamino)-3-hydroxy-4-oxo-1,4-dihydropyridine-2-carboxamide] | 1 to 10
20 | O=C(NCc1cccc2ccccc12)c1c(O)c(=O)ccn1NC1c2ccccc2COc2ccccc21 (stereo not shown) [Compound 24] | > 100
21 | CNC(=O)c1c(O)c(=O)ccn1N(C)C1c2ccccc2COc2ccccc21 (stereo not shown) [Compound 25] | > 100
22 | COC(=O)c1c(O)c(=O)ccn1N(Cc1ccccc1)C1c2ccccc2COc2ccccc21 (stereo not shown) [Compound 26] | > 100
23 | O=c1ccn(N(Cc2ccccc2)C2c3ccccc3COc3ccccc32)cc1O (stereo not shown) [Compound 27] | > 100

Row | SMILES | EC50 [µM]
24 | CN(C1c2ccccc2COc2ccccc21)n1ccc(=O)c(O)c1 (stereo not shown) [Compound 28] | > 100
25 | O=C(NCc1cccc(O)c1)c1c(O)c(=O)ccn1NC1c2ccccc2COc2ccccc21 (stereo not shown) [Compound 29] | > 100
26 | O=C(Nc1cccc(-c2ccccc2)c1)c1c(O)c(=O)ccn1NC1c2ccccc2COc2ccccc21 (stereo not shown) [Compound 30] | > 100
27 | O=C(NCc1ccc(C(F)(F)F)cc1)c1c(O)c(=O)ccn1NC1c2ccccc2COc2ccccc21 (stereo not shown) [Compound 31] | > 100
28 | O=C(NCc1ccc(O)cc1)c1c(O)c(=O)ccn1NC1c2ccccc2COc2ccccc21 (stereo not shown) [Compound 32] | > 100
29 | O=C(NCc1cccc(-c2ccccc2)c1)c1c(O)c(=O)ccn1NC1c2ccccc2COc2ccccc21 (stereo not shown) [Compound 33] | > 100
30 | CN(C1c2ccccc2COc2ccccc21)n1ccc(=O)c(O)c1C(=O)Nc1ccccc1 (stereo not shown) [Compound 34] | > 100
31 | O=C(Nc1ccc(C(F)(F)F)cc1)c1c(O)c(=O)ccn1NC1c2ccccc2COc2ccccc21 (stereo not shown) [Compound 35] | > 100
32 | O=C(Nc1ccc(-c2ccccc2)cc1)c1c(O)c(=O)ccn1NC1c2ccccc2COc2ccccc21 (stereo not shown) [Compound 36] | > 100
33 | O=C(NCc1cccc(C(F)(F)F)c1)c1c(O)c(=O)ccn1NC1c2ccccc2COc2ccccc21 (stereo not shown) [Compound 37] | > 100
34 | CNC(=O)c1c(O)c(=O)ccn1CC(c1ccccc1)c1ccccc1 [Compound 38] | > 100
35 | CN(C(c1ccccc1)c1ccccc1)n1ccc(=O)c(O)c1 [Compound 39] | > 100
36 | O=C(O)c1c(O)c(=O)ccn1NC1c2ccccc2SCc2c1ccc(F)c2F (stereo not shown) [Compound 40, 1-((7,8-difluoro-6,11-dihydrodibenzo[b,e]thiepin-11-yl)amino)-3-hydroxy-4-oxo-1,4-dihydropyridine-2-carboxylic acid] | 1 to 10
37 | CNC(=O)c1c(O)c(=O)ccn1NC1c2ccccc2SCc2c1ccc(F)c2F (stereo not shown) [Compound 41] | > 100
38 | O=C(NCC(F)(F)F)c1c(O)c(=O)ccn1NC1c2ccccc2SCc2c1ccc(F)c2F (stereo not shown) [Compound 42, 1-((7,8-difluoro-6,11-dihydrodibenzo[b,e]thiepin-11-yl)amino)-3-hydroxy-4-oxo-N-(2,2,2-trifluoroethyl)-1,4-dihydropyridine-2-carboxamide] | 1 to 10
39 | O=c1ccn(NC2c3ccccc3SCc3c2ccc(F)c3F)cc1O (stereo not shown) [Compound 43, 1-((7,8-difluoro-6,11-dihydrodibenzo[b,e]thiepin-11-yl)amino)-3-hydroxypyridin-4(1H)-one] | > 100
40 | CNC(=O)c1c(O)c(=O)ccn1NC1CCN(Cc2ccccc2)c2ccccc21 (stereo not shown) [Compound 44] | > 100
41 | CNC(=O)c1c(O)c(=O)ccn1NC1CCN(C)c2ccccc21 (stereo not shown) [Compound 45] | > 100
42 | CNC(=O)c1c(O)c(=O)ccn1NC1CCCN(C)c2ccccc21 (stereo not shown) [Compound 46] | > 100
43 | O=C(Nc1ccc2ccccc2c1)c1c(O)c(=O)ccn1NC1c2ccccc2COc2ccccc21 (stereo not shown) [Compound 47] | > 100
44 | O=C(Nc1cccc(C(F)(F)F)c1)c1c(O)c(=O)ccn1CC1c2ccccc2COc2ccccc21 (stereo not shown) [Compound 48] | > 100
45 | O=C(Nc1ccccc1)c1c(O)c(=O)ccn1CC1c2ccccc2COc2ccccc21 (stereo not shown) [Compound 49] | > 100

Row | SMILES | EC50 [µM]
46 | O=C(NCc1ccccc1)c1c(O)c(=O)ccn1CC1c2ccccc2COc2ccccc21 (stereo not shown) [Compound 51] | > 100
47 | CNC(=O)c1c(O)c(=O)ccn1CC1c2ccccc2COc2ccccc21 (stereo not shown) [Compound 52] | > 100
48 | CNC(=O)c1c(O)c(=O)ccn1NC1CCCN(Cc2ccccc2)c2ccccc21 (stereo not shown) [Compound 54] | > 100
49 | CNC(=O)c1c(O)c(=O)ccn1NC1CCOCc2ccccc21 (stereo not shown) [Compound 56] | > 100
50 | CN(Cc1ccccc1)C(=O)c1c(O)c(=O)ccn1CC1c2ccccc2COc2ccccc21 (stereo not shown) [Compound 57] | > 100
51 | O=C(O)c1c(O)c(=O)ccn1NC1c2cc(Cl)ccc2COc2ccc(Cl)cc21 (stereo not shown) [Compound 58, 1-((2,9-dichloro-6,11-dihydrodibenzo[b,e]oxepin-11-yl)amino)-3-hydroxy-4-oxo-1,4-dihydropyridine-2-carboxylic acid] | 10 to 100
52 | O=C(O)c1c(O)c(=O)ccn1NC1c2ccccc2CSc2ccccc21 (stereo not shown) [Compound 59] | 10 to 100
53 | O=C(O)c1c(O)c(=O)ccn1NC1c2ccccc2COc2cc(Cl)c(Cl)cc21 (stereo not shown) [Compound 60] | 10 to 100
54 | CNC(=O)c1c(O)c(=O)ccn1NC(c1ccccc1)c1ccccc1 [Compound 61] | > 100
55 | O=C(O)c1c(O)c(=O)ccn1NC1c2ccccc2OCc2c(F)cccc21 (stereo not shown) [Compound 66] | 10 to 100
56 | O=C(O)c1c(O)c(=O)ccn1NC(c1ccccc1)c1ccccc1 [Compound 67] | > 100
57 | O=C(O)c1c(O)c(=O)ccn1NC(c1cccc2ccccc12)c1cccc2ccccc12 [Compound 68] | > 100
58 | CNC(=O)c1c(O)c(=O)ccn1NC(c1cccc2ccccc12)c1cccc2ccccc12 [Compound 69] | > 100
59 | CNC(=O)c1c(O)c(=O)ccn1N(Cc1ccccc1)C1c2ccccc2COc2ccccc21 (stereo not shown) [Compound 72] | > 100
60 | O=C(O)c1cn(CC2c3ccccc3COc3ccccc32)c(C(=O)O)c(O)c1=O (stereo not shown) [Compound 73] | > 100
61 | CNC(=O)c1c(O)c(=O)ccn1NC1c2ccccc2OCc2c(F)cccc21 (stereo not shown) [Compound 74] | > 100
62 | O=C(O)c1c(O)c(=O)ccn1NC1c2ccccc2OCc2c1ccc(F)c2F (stereo not shown) [Compound 75] | 10 to 100
63 | CNC(=O)c1c(O)c(=O)ccn1NC1c2ccccc2COc2cc(Cl)c(Cl)cc21 (stereo not shown) [Compound 76, 1-((2,3-dichloro-6,11-dihydrodibenzo[b,e]oxepin-11-yl)amino)-3-hydroxy-N-methyl-4-oxo-1,4-dihydropyridine-2-carboxamide] | > 100
64 | O=C(O)c1c(O)c(=O)ccn1NC1c2ccccc2CSc2cc(Cl)c(Cl)cc21 (stereo not shown) [Compound 77] | 10 to 100
65 | CNC(=O)c1c(O)c(=O)ccn1NC1c2ccccc2CSc2cc(F)c(F)cc21 (stereo not shown) [Compound 78] | 1 to 10
66 | CNC(=O)c1c(O)c(=O)ccn1NC1c2ccccc2CSc2cc(Cl)c(Cl)cc21 (stereo not shown) [Compound 79, 1-((2,3-dichloro-6,11-dihydrodibenzo[b,e]thiepin-11-yl)amino)-3-hydroxy-N-methyl-4-oxo-1,4-dihydropyridine-2-carboxamide] | > 100

same assay, conditions: Influenza A virus, H1N1 / PR/8, MDCK, 96 h, read-out: Influenza H1N1 affinity, EC50

Row | SMILES | EC50 [µM]
67 | CNC(=O)c1cn(CC2c3ccccc3COc3ccccc32)c(C(=O)NC)c(O)c1=O (stereo not shown) [Compound 65, 1-((6,11-dihydrodibenzo[b,e]oxepin-11-yl)methyl)-3-hydroxy-N2,N5-dimethyl-4-oxo-1,4-dihydropyridine-2,5-dicarboxamide] | > 100
